Where no end group is shown, it is not given here.
Key:
HLA DRB1 *1101 = HLA DRB1 *1101 (Homo sapiens, UniProt P01903+P01911, A100R/A169T/A87E/I96F/K41T/L162R/M171V/P40S/Q125H/Q178H/Q39Y/Q99D/R42S/S66Y/T262R/V115G/W38E); experiment: IC50nM to purified HLA | DRB1 *1101
Experimental: (§1) Table printed on a drawing sheet, FIG. 1 (contd.)
Head of the field: IC50nM to purified HLA | DRB1 *1101
(§2) First copying reader's note: Continued from the preceding sheet of FIG. 1; decimal commas are used, the analog names give the substituted residues and positions in PADRE, and some values are printed in italics or bold and some SEQ ID NOs bold and underlined without a legend on this sheet.
Where the first naming reader finds the target: head: IC50nM to purified HLA | DRB1 *1101

HLA DRB1 *0901 = HLA DRB1 *0901 (Homo sapiens, UniProt P01903+P01911, A100R/A103E/D57H/D86V/F55Y/F60I/F76Y/I96F/K127E/L162R/M171V/P40D/Q125H/Q99R/R33Q/R42F/S133A/S66N/T210M/V115G/W38K/Y107V/Y59G/Y89S); experiment: IC50nM to purified HLA | DRB1 *0901
Experimental: as §1
Head of the field: IC50nM to purified HLA | DRB1 *0901
as §2
Where the first naming reader finds the target: head: IC50nM to purified HLA | DRB1 *0901

HLA DRB1 *0101 = HLA DRB1 *0101 (Homo sapiens, UniProt P01903+P01911, A100R/D57E/F55L/F60I/F76Y/I96L/L162R/M171V/P40L/Q125E/R42F/V115G/Y59C); experiment: IC50nM to purified HLA | DRB1 *0101
Experimental: as §1
(§3) Head of the field: IC50nM to purified HLA | DRB1 *0101
as §2
(§4) Where the first naming reader finds the target: head: IC50nM to purified HLA | DRB1 *0101

HLA DRB1 *0802 = HLA DRB1 *0802 (Homo sapiens, UniProt P01903+P01911, A100R/A103L/A169T/F76Y/H45Y/I96F/K41T/L162R/M171V/P40S/Q125H/Q178H/Q39Y/Q99D/R218S/R42G/S66Y/V115G/W38E); experiment: IC50nM to purified HLA | DRB1 *0802
Experimental: as §1
(§5) Head of the field: IC50nM to purified HLA | DRB1 *0802
as §2
(§6) Where the first naming reader finds the target: head: IC50nM to purified HLA | DRB1 *0802

HLA DRB1 *0401 = HLA DRB1 *0401 (Homo sapiens, UniProt P01903+P01911, A100K/A169T/F76Y/I96L/K127E/L162R/M171V/N62H/P40V/Q125Y/R42H/S133A/S149N/S66Y/V115G/V209L/W38E); experiment: IC50nM to purified HLA | DRB1 *0401
Experimental: as §1
(§7) Head of the field: IC50nM to purified HLA | DRB1 *0401
as §2
(§8) Where the first naming reader finds the target: head: IC50nM to purified HLA | DRB1 *0401

HLA DRB1 *1302 = HLA DRB1 *1302 (Homo sapiens, UniProt P01903+P01911, A100E/A169T/K41T/L162R/M171V/P40S/Q125H/Q178H/Q39Y/Q99D/R42S/S66N/T262R/V115G/W38E/Y61H); experiment: IC50nM to purified HLA | DRB1 *1302
Experimental: as §1
Head of the field: IC50nM to purified HLA | DRB1 *1302
as §2
Where the first naming reader finds the target: head: IC50nM to purified HLA | DRB1 *1302

[1] = test system: crude extract from E. coli; experiment: In situ protease assay: TNFα variants in E. coli crude extract, SDS-PAGE and Western blot; format: in vitro ADME; settings: sequence inserted into loop EF of human TNFα, procedure of Example 2
Experimental: In order to test the protease resistance of selected, good binding PADRE analogues, their sequences were inserted by cloning techniques into a loop (loop EF) in human TNFα. Cell-free protein crude extract from E. coli expressing the modified TNFα molecules was prepared and proteolytic cleavage within the PADRE analogue sequences was analysed by SDS-PAGE followed by immunoblotting.
A synthetic cDNA encoding TNF (Y87S) was used as template. Oligonucleotides encoding PADRE or PADRE analogues were inserted into the template between A185 and E186 by PCR (cf. above). Resulting cDNAs were cloned into pET28b+(Novagen) and transformed into E. coli strain HMS 174. For recombinant expression, the resulting E. coli strains were cultured in fermentors in a defined medium at 37° C. Induction of recombinant expression was initiated by the addition of 1 mM of IPTG and temperature was lowered to 25° C. Cultures were harvested at 4, 8 or 24 h post-IPTG induction. TNFα variants were purified to >90% homogeneity by affinity chromatography using a TNFα specific monoclonal antibody as described in Nielsen et al., (2004), J Biol. Chem. 279:33593-33600. The purified TNFα variants were characterized by MALDI-TOF mass spectrometry to verify their identity and integrity.
In Situ Protease Assay: Analysis of the Protease Resistance of TNF-α Variants Using Western Blot
Aliquots (1 ml) of E. coli cell cultures, expressing the various TNF-α variants to be tested, were centrifuged (5000 g/5 min/5° C.) and the culture medium was discarded. Cell pellets were resuspended in 1 ml of 20 mM Bis-Tris, pH 6.0. Cell disruption was achieved by sonication (4×15 sec at an amplitude of 11 μm with 20 sec pauses between each sonication round). The resulting suspensions were centrifuged (20000 g/30 min/8° C.) and the supernatants (crude extracts) were transferred to fresh tubes. Crude extracts were then analysed for protein content using a Bradford protein assay (Biorad). Equivalent amounts of proteins were loaded onto 4-12% NuPAGE gels (Novex). After SDS-PAGE, proteins were transferred onto nitrocellulose membrane by semi-dry blotting. For immunoreaction, incubation with rabbit TNFα antiserum (1 h; dilution 1:10 000) and with horse radish peroxidase-conjugated secondary antibody (Dako P448) were carried out in Tris 50 mM, NaCl 150 mM, EDTA 5 mM, Igepal 0.1%, gelatine 0.5%. Detection was with ECL™ reagents (GE Healthcare).

HLA DRB5 *0101 = HLA DRB5 *0101 (Homo sapiens, UniProt P01903+Q30154); experiment: IC50nM to purified HLA | DRB5 *0101
Experimental: as §1
Head of the field: IC50nM to purified HLA | DRB5 *0101
as §2
Where the first naming reader finds the target: head: IC50nM to purified HLA | DRB5 *0101

HLA DRB1 *0301 = HLA DRB1 *0301 (Homo sapiens, UniProt P01903+P01911, A100K/A102G/A103R/A169T/F55Y/I96L/K41T/L162R/M171V/P40S/Q125H/Q178H/Q39Y/R42S/S66N/T106N/T262R/W38E/Y61H); experiment: IC50nM to purified HLA | DRB1 *0301
Experimental: as §1
(§9) Head of the field: IC50nM to purified HLA | DRB1 *0301
as §2
(§10) Where the first naming reader finds the target: head: IC50nM to purified HLA | DRB1 *0301

HLA DRB1 *0405 = HLA DRB1 *0405 (Homo sapiens, UniProt P01903+P01911, A100R/A169T/D86S/F76Y/I96L/K127E/L162R/M171V/N62H/P40V/Q125Y/R42H/S133A/S149N/S66Y/V115G/V209L/W38E); experiment: IC50nM to purified HLA | DRB1 *0405
Experimental: as §1
(§11) Head of the field: IC50nM to purified HLA | DRB1 *0405
as §2
(§12) Where the first naming reader finds the target: head: IC50nM to purified HLA | DRB1 *0405

HLA DRB1 *0701 = HLA DRB1 *0701 (Homo sapiens, UniProt P01903+P01911, A100R/A102G/A103Q/D57E/D86V/E43K/F76Y/K127E/L162R/M171V/P40G/Q125H/Q99D/R33Q/R42Y/R54Q/S133A/S66F/T210M/V115G/Y107V/Y59L/Y89S); experiment: IC50nM to purified HLA | DRB1 *0701
Experimental: as §1
(§13) Head of the field: IC50nM to purified HLA | DRB1 *0701
as §2
(§14) Where the first naming reader finds the target: head: IC50nM to purified HLA | DRB1 *0701

purified HLA DRB1 *0301 = purified HLA DRB1 *0301 (Homo sapiens, UniProt P01903+P01911, A100K/A102G/A103R/A169T/F55Y/I96L/K41T/L162R/M171V/P40S/Q125H/Q178H/Q39Y/R42S/S66N/T106N/T262R/W38E/Y61H); experiment: IC50nM to purified HLA | DRB1 *0301
Experimental: (§15) Table printed on a drawing sheet, FIG. 1
as §9
(§16) First copying reader's note: The comma is the decimal sign and the point a thousands separator (e.g. 21.831); some values are printed bold or italic and some SEQ ID NOs underlined, with no legend on the sheet.
as §10

purified HLA DRB1 *0405 = purified HLA DRB1 *0405 (Homo sapiens, UniProt P01903+P01911, A100R/A169T/D86S/F76Y/I96L/K127E/L162R/M171V/N62H/P40V/Q125Y/R42H/S133A/S149N/S66Y/V115G/V209L/W38E); experiment: IC50nM to purified HLA | DRB1 *0405
Experimental: as §15, §11, §16, §12

purified HLA DRB1 *0401 = purified HLA DRB1 *0401 (Homo sapiens, UniProt P01903+P01911, A100K/A169T/F76Y/I96L/K127E/L162R/M171V/N62H/P40V/Q125Y/R42H/S133A/S149N/S66Y/V115G/V209L/W38E); experiment: IC50nM to purified HLA | DRB1 *0401
Experimental: as §15, §7, §16, §8

purified HLA DRB1 *0101 = purified HLA DRB1 *0101 (Homo sapiens, UniProt P01903+P01911, A100R/D57E/F55L/F60I/F76Y/I96L/L162R/M171V/P40L/Q125E/R42F/V115G/Y59C); experiment: IC50nM to purified HLA | DRB1 *0101
Experimental: as §15, §3, §16, §4

purified HLA DRB1 *0404 = purified HLA DRB1 *0404 (Homo sapiens, UniProt P01903+P01911, A100R/A169T/F76Y/I96L/K127E/L162R/M171V/N62H/P40V/Q125Y/R42H/S133A/S149N/S66Y/V209L/W38E); experiment: IC50nM to purified HLA | DRB1 *0404
Experimental: as §15
Head of the field: IC50nM to purified HLA | DRB1 *0404
as §16
Where the first naming reader finds the target: head: IC50nM to purified HLA | DRB1 *0404

purified HLA DRB1 *0701 = purified HLA DRB1 *0701 (Homo sapiens, UniProt P01903+P01911, A100R/A102G/A103Q/D57E/D86V/E43K/F76Y/K127E/L162R/M171V/P40G/Q125H/Q99D/R33Q/R42Y/R54Q/S133A/S66F/T210M/V115G/Y107V/Y59L/Y89S); experiment: IC50nM to purified HLA | DRB1 *0701
Experimental: as §15, §13, §16, §14

purified HLA DRB4 *0101 = purified HLA DRB4 *0101 (Homo sapiens, UniProt P01903+P13762, G164S); experiment: IC50nM to purified HLA | DRB4 *0101
Experimental: as §15
Head of the field: IC50nM to purified HLA | DRB4 *0101
as §16
Where the first naming reader finds the target: head: IC50nM to purified HLA | DRB4 *0101

purified HLA DRB1 *0802 = purified HLA DRB1 *0802 (Homo sapiens, UniProt P01903+P01911, A100R/A103L/A169T/F76Y/H45Y/I96F/K41T/L162R/M171V/P40S/Q125H/Q178H/Q39Y/Q99D/R218S/R42G/S66Y/V115G/W38E); experiment: IC50nM to purified HLA | DRB1 *0802
Experimental: as §15, §5, §16, §6

Chain of purified HLA DRB1 *0301 (P01903 26-254 limits assumed, other chains not shown): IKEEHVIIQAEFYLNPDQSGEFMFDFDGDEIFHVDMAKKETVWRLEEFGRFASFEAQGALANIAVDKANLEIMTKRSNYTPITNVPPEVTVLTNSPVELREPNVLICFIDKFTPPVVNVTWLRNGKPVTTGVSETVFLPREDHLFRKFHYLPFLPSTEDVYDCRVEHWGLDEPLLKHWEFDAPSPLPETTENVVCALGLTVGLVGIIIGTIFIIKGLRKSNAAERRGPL
Chain of HLA DRB1 *1302 (P01903 26-254 limits assumed, other chains not shown): as above
Chain of HLA DRB1 *0301 (P01903 26-254 limits assumed, other chains not shown): as above
Chain of HLA DRB1 *1101 (P01903 26-254 limits assumed, other chains not shown): as above
Chain of purified HLA DRB4 *0101 (P01903 26-254 limits assumed): as the sequence (P01903 26-254 limits assumed, other chains not shown) above
Chain of purified HLA DRB4 *0101 (P13762 whole entry G164S): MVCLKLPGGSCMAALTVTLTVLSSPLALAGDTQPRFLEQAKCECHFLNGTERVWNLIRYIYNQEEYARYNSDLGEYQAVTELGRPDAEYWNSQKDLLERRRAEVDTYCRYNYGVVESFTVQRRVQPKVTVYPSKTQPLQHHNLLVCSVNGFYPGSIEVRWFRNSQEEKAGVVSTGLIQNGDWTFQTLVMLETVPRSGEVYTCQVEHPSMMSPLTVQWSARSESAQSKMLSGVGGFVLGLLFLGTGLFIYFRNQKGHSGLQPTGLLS

Row | Sequence | IC50 (HLA DRB1 *1101) | IC50 (HLA DRB1 *0901) | IC50 (HLA DRB1 *0101) | IC50 (HLA DRB1 *0802) | IC50 (HLA DRB1 *0401) | IC50 (HLA DRB1 *1302) | protease resistance of PADRE analogue sequence [1] | IC50 (HLA DRB5 *0101) | IC50 (HLA DRB1 *0301) | IC50 (HLA DRB1 *0405) | IC50 (HLA DRB1 *0701) | IC50 (purified HLA DRB1 *0301) | IC50 (purified HLA DRB1 *0405) | IC50 (purified HLA DRB1 *0401) | IC50 (purified HLA DRB1 *0101) | IC50 (purified HLA DRB1 *0404) | IC50 (purified HLA DRB1 *0701) | IC50 (purified HLA DRB4 *0101) | IC50 (purified HLA DRB1 *0802)
1 | AAAHFVAANTLHAAA [SEQ ID NO: 29] | 22 nM | 37 nM | 4.1 nM | 17 nM | 4.5 nM | 47 nM | increased resistance towards proteolytic degradation | 33 nM | 361 nM | 18 nM | 76 nM | – | – | – | – | – | – | – | –
2 | AAAYFVAAFTLHAAA [SEQ ID NO: 23] | – | – | – | – | – | – | increased resistance towards proteolytic degradation | – | – | – | – | 126 nM | 4.4 nM | 1 nM | 3.4 nM | 0.67 nM | 78 nM | 81 nM | 5.9 nM

Reference: patent publication US9789181B2, “PAN-DR binding polypeptides and uses thereof” (Epimmune Inc., priority 2009, dated 2017)
